Reference: patent US8076295B2, “Peptide amphiphiles having improved solubility and methods of using same” (Nanotope, Inc., priority 2007, dated 2011)
“Also recorded” adds a separate entry of the source. Where a SMILES comes first, the peptide text is derived from it. The star is where a group is joined. Palmitoyl = CCCCCCCCCCCCCCCC(=O)*

Tests used:
Assay type in all cases: physicochemical
[1] = Solubility in aqueous ammonium hydroxide buffer; conditions: for solubility: water containing 0.1 vol % ammonium hydroxide, water containing 0.1% by volume ammonium hydroxide
Protocol: SEQ ID NO:2 or SEQ ID NO:4 was dissolved at 20 mg/mL in an aqueous solution with sufficient ammoniumhydroxide to obtain a pH of 9. This solution was purified in 5 mL aliquots using an Agilent, Inc. model 1100 preparative HPLC equipped with a Phenomenex, Inc. Gemini® 5 μm C18 column (100×30 mm). An elution gradient of water and acetonitrile (each containing 0.1 vol % ammonium hydroxide buffer) was used, as shown in FIG. 2A. The flow rate was 15 mL/min, and the mobile phase was pre-heated to ca. 45° C. using a Timberline Instruments TL-105 column heater.
While the amino acid sequence change between SEQ ID NO:2 and SEQ ID NO:6 appears at first glance to be relatively minor, it nevertheless confers several important and unexpected consequences. The additional glutamic acid residue increases the aqueous solubility and broadens the type of aqueous buffers in which the molecule is soluble. Absent this modification, the only amino acid side chains that are ionized under physiological conditions in SEQ ID NO:6 form a zwitterion (e.g. Glu-Ile-Lys), which limits the molecule's solubility in most aqueous buffers. […] This change has important implications for the manufacturability and clinical development of the peptide amphiphile, as solubility in an ammonium hydroxide buffer greatly facilitates purification by HPLC.
This seemingly insignificant modification (the deletion of one methylene group from the residue) results in a greater than 20-fold increase in aqueous solubility of the peptide amphiphile in an ammonium hydroxide buffer, greatly facilitating purification by HPLC (see FIG. 2D).

[2] = Gelation kinetics and rheological properties of gels formed in artificial cerebrospinal fluid (rheometer); conditions: for tan(δ) (loss modulus divided by storage modulus): gel in artificial cerebrospinal fluid
Protocol: Chemical structures for these molecules are also depicted in FIG. 1. Experiments were performed to examine the gelation kinetics and rheological properties of SEQ ID NO:2 with SEQ ID NO:6. Peptide amphiphile samples were dissolved in water at a concentration of 10 mg/mL.
A Physica, Inc. MCR 300 Molecular Compact Rheometer equipped with a 25 mm plate was used to measure stiffness of gels formed by SEQ ID NO:2 and SEQ ID NO:6 in vitro. Samples were measured at 21° C., 0.5% shear strain, with a frequency (ω) of 10 Hz and a gap between the plates of 0.5 mm. G′ (storage modulus) and […] were measured with respect to time post-gelation.
Tan(δ) (defined as the loss modulus divided by the storage modulus) quantifies the balance between energy loss and energy storage in a material, regardless of viscosity.

[3] = Dissolution in water on pH adjustment with NaOH; conditions: 5 mg/mL in water, pH adjusted to 7.0-7.5 with NaOH
Protocol: The lyophilized peptide amphiphile powder was weighed and re-dissolved in USP pharmaceutical grade water at a concentration of 5 mg/mL. The colloidal suspension obtained was agitated in an ultrasonic bath for 30 min.

[4] = 21° C., 0.5% shear strain, 10 Hz

Row | SMILES | solubility (in words) ([1]; 0.1 vol % ammonium hydroxide aqueous buffer) | solubility [1] | tan(δ) (loss modulus divided by storage modulus) [2, 4] | increase in aqueous solubility relative to SEQ ID NO:6 ([1]; ammonium hydroxide buffer) | dissolution of colloidal suspension on pH adjustment [3] | self-assembly / gel formation induced by artificial CSF ([2]; 10 mg/mL in water mixed with equal volume of artificial CSF) | complex shear modulus (G*) compared with SEQ ID NO:6 ([2]; one hour post-gelation, 10 mg/mL solution mixed with equal volume of artificial CSF, 21° C., 0.5% shear strain, 10 Hz)
1 | CCCCCCCCCCCCCCCC(=O)N[C@@H](CO)C(=O)N[C@@H](CC(C)C)C(=O)N[C@@H](CO)C(=O)N[C@@H](CC(C)C)C(=O)N[C@@H](C)C(=O)N[C@@H](C)C(=O)N[C@@H](C)C(=O)N[C@@H](CCC(=O)O)C(=O)N[C@H](C(=O)N[C@@H](CCCCN)C(=O)N[C@H](C(=O)N[C@@H](C)C(=O)N[C@H](C(=O)O)C(C)C)C(C)C)[C@@H](C)CC [SEQ ID NO:6, C16H31O-Ser-Leu-Ser-Leu-Ala-Ala-Ala-Glu-Ile-Lys-Val-Ala-Val-OH, reference compound] (Palmitoyl-SLSLAAAEIKVAV-OH) | relatively low solubility; also recorded: only sparingly soluble | < 1 mg/mL | liquid-like |  |  |  | 
2 | CCCCCCCCCCCCCCCC(=O)N[C@@H](CO)C(=O)N[C@@H](CC(C)C)C(=O)N[C@@H](CO)C(=O)N[C@@H](CC(C)C)C(=O)N[C@@H](C)C(=O)N[C@@H](C)C(=O)N[C@@H](C)C(=O)N[C@@H](CC(=O)O)C(=O)N[C@H](C(=O)N[C@@H](CCCCN)C(=O)N[C@H](C(=O)N[C@@H](C)C(=O)N[C@H](C(=O)O)C(C)C)C(C)C)[C@@H](C)CC [SEQ ID NO:4, C16H31O-Ser-Leu-Ser-Leu-Ala-Ala-Ala-Asp-Ile-Lys-Val-Ala-Val-OH] (Palmitoyl-SLSLAAADIKVAV-OH) |  | > 20 mg/mL |  | greater than 20 fold | go readily into solution |  | 
3 | CCCCCCCCCCCCCCCC(=O)N[C@@H](CO)C(=O)N[C@@H](CC(C)C)C(=O)N[C@@H](CO)C(=O)N[C@@H](CC(C)C)C(=O)N[C@@H](C)C(=O)N[C@@H](C)C(=O)N[C@@H](C)C(=O)N[C@@H](CCC(=O)O)C(=O)N[C@@H](CCC(=O)O)C(=O)N[C@H](C(=O)N[C@@H](CCCCN)C(=O)N[C@H](C(=O)N[C@@H](C)C(=O)N[C@H](C(=O)O)C(C)C)C(C)C)[C@@H](C)CC [SEQ ID NO:2, C16H31O-Ser-Leu-Ser-Leu-Ala-Ala-Ala-Glu-Glu-Ile-Lys-Val-Ala-Val-OH] (Palmitoyl-SLSLAAAEEIKVAV-OH) |  | > 20 mg/mL | significantly lower |  | go readily into solution | resulting in a gel with the desired properties | an order of magnitude greater
